Data reported in ChEMBL document CHEMBL1201862, “PubChem BioAssay data set” (2004).
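Test compounds were applied to cells in 96-well plates for 48 hours at 5 doses. GI50 marks 50% less growth.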 Active and inactive are the calls of the source. No stated cut-off is given here; in the data, active = GI50 up to about 1.1 µM and inactive = higher.

Columns and labels:
Assay in all cases: NCI anticancer screen, dose series, 48 h
786-0 = tested on: 786-0
A498 = tested on: A498
A549 = tested on: A549
ACHN = tested on: ACHN
BT-549 = tested on: BT-549
CAKI-1 = tested on: CAKI-1
CCRF-CEM = tested on: CCRF-CEM
COLO 205 = tested on: COLO 205
DU-145 = tested on: DU-145
EKVX = tested on: EKVX
HCC 2998 = tested on: HCC 2998
HCT-116 = tested on: HCT-116
HCT-15 = tested on: HCT-15
HL-60 = tested on: HL-60
HOP-62 = tested on: HOP-62
HOP-92 = tested on: HOP-92
HT-29 = tested on: HT-29
Hs-578T = tested on: Hs-578T
IGROV-1 = tested on: IGROV-1
KM12 = tested on: KM12
LOX IMVI = tested on: LOX IMVI
M14 = tested on: M14
MCF7 = tested on: MCF7
MDA-MB-231 = tested on: MDA-MB-231
MDA-MB-435 = tested on: MDA-MB-435
MDA-N = tested on: MDA-N
MOLT-4 = tested on: MOLT-4
Malme-3M = tested on: Malme-3M
NCI-H23 = tested on: NCI-H23
NCI-H460 = tested on: NCI-H460
NCI-H522 = tested on: NCI-H522
NCI/ADR-RES = tested on: NCI/ADR-RES
OVCAR-3 = tested on: OVCAR-3
OVCAR-4 = tested on: OVCAR-4
OVCAR-5 = tested on: OVCAR-5
OVCAR-8 = tested on: OVCAR-8
PC-3 = tested on: PC-3
RPMI-8226 = tested on: RPMI-8226
SF-268 = tested on: SF-268
SF-295 = tested on: SF-295
SF-539 = tested on: SF-539
SK-MEL-28 = tested on: SK-MEL-28
SK-MEL-2 = tested on: SK-MEL-2
SK-MEL-5 = tested on: SK-MEL-5
SN12C = tested on: SN12C
SNB-19 = tested on: SNB-19
SNB-75 = tested on: SNB-75
SR = tested on: SR
SW-620 = tested on: SW-620
T47D = tested on: T47D
TK-10 = tested on: TK-10
U-251 = tested on: U-251
UACC-257 = tested on: UACC-257
UACC-62 = tested on: UACC-62
UO-31 = tested on: UO-31
K562 = tested on: K562
NCI-H226 = tested on: NCI-H226
RXF 393 = tested on: RXF 393
SK-OV-3 = tested on: SK-OV-3

Measured: GI50

CC(C)(C)OC(=O)N1CCC(C(=O)O)CC1
> 100 µM: HCT-15
inactive: 786-0 > 100 µM | A498 > 100 µM | A549 > 100 µM | ACHN > 100 µM | BT-549 > 100 µM | CAKI-1 > 100 µM | CCRF-CEM > 100 µM | COLO 205 > 100 µM | DU-145 > 100 µM | EKVX > 100 µM | HCC 2998 > 100 µM | HCT-116 > 100 µM | HL-60 > 100 µM | HOP-62 > 100 µM | HOP-92 > 100 µM | HT-29 > 100 µM | Hs-578T > 100 µM | IGROV-1 > 100 µM | KM12 > 100 µM | LOX IMVI > 100 µM | M14 > 100 µM | MCF7 > 100 µM | MDA-MB-231 > 100 µM | MDA-MB-435 > 100 µM | MDA-N > 100 µM | MOLT-4 > 100 µM | Malme-3M > 100 µM | NCI-H23 > 100 µM | NCI-H460 > 100 µM | NCI-H522 > 100 µM | NCI/ADR-RES > 100 µM | OVCAR-3 > 100 µM | OVCAR-4 > 100 µM | OVCAR-5 > 100 µM | OVCAR-8 > 100 µM | PC-3 > 100 µM | RPMI-8226 > 100 µM | SF-268 > 100 µM | SF-295 > 100 µM | SF-539 > 100 µM | SK-MEL-28 > 100 µM | SK-MEL-2 > 100 µM | SK-MEL-5 > 100 µM | SN12C > 100 µM | SNB-19 > 100 µM | SNB-75 > 100 µM | SR > 100 µM | SW-620 > 100 µM | T47D > 100 µM | TK-10 > 100 µM | U-251 > 100 µM | UACC-257 > 100 µM | UACC-62 > 100 µM | UO-31 > 100 µM

CCOC(=O)c1cc2c3c(c(C(C)=O)c(O)c2[nH]1)N(C(C)=O)CC3
49.7 µM: HCT-15
inactive: 786-0 > 100 µM | A498 52.5 µM | ACHN 27.5 µM | BT-549 52 µM | CAKI-1 > 100 µM | CCRF-CEM 46 µM | COLO 205 63.2 µM | DU-145 82.6 µM | EKVX 61 µM | HCT-116 68.4 µM | HL-60 76.2 µM | HOP-62 > 100 µM | HT-29 > 100 µM | Hs-578T 51.9 µM | IGROV-1 31.8 µM | K562 26.9 µM | KM12 45.4 µM | LOX IMVI > 100 µM | M14 76.6 µM | MCF7 55.8 µM | MDA-MB-231 > 100 µM | MDA-MB-435 89.3 µM | MDA-N > 100 µM | MOLT-4 27.7 µM | Malme-3M 64.3 µM | NCI-H226 71.4 µM | NCI-H23 46.9 µM | NCI-H460 > 100 µM | NCI/ADR-RES 29.9 µM | OVCAR-3 34 µM | OVCAR-5 > 100 µM | OVCAR-8 38.1 µM | PC-3 48.3 µM | RPMI-8226 19.3 µM | RXF 393 21.7 µM | SF-268 55.8 µM | SF-295 52.7 µM | SF-539 48.9 µM | SK-MEL-28 34.4 µM | SK-MEL-2 > 100 µM | SK-MEL-5 52.7 µM | SK-OV-3 > 100 µM | SN12C > 100 µM | SNB-19 > 100 µM | SNB-75 > 100 µM | SR 50.6 µM | SW-620 > 100 µM | T47D 46.7 µM | TK-10 40.6 µM | U-251 > 100 µM | UACC-257 > 100 µM | UACC-62 81.3 µM | UO-31 31.2 µM

Cc1cc2c(cc1N)C(C)C1(CCC(=O)N2Cc2ccccc2)OCCO1 (centres undefined)
> 100 µM: HCT-15
inactive: 786-0 > 100 µM | A498 > 100 µM | A549 > 100 µM | ACHN > 100 µM | BT-549 > 100 µM | CAKI-1 > 100 µM | DU-145 > 100 µM | EKVX > 100 µM | HCC 2998 > 100 µM | HCT-116 > 100 µM | HOP-62 > 100 µM | HOP-92 > 100 µM | HT-29 > 100 µM | Hs-578T > 100 µM | IGROV-1 > 100 µM | KM12 > 100 µM | LOX IMVI > 100 µM | M14 > 100 µM | MCF7 > 100 µM | MDA-MB-231 > 100 µM | MDA-MB-435 > 100 µM | MDA-N > 100 µM | MOLT-4 > 100 µM | Malme-3M 89.7 µM | NCI-H226 > 100 µM | NCI-H23 > 100 µM | NCI-H460 > 100 µM | NCI-H522 > 100 µM | NCI/ADR-RES > 100 µM | OVCAR-3 > 100 µM | OVCAR-4 > 100 µM | OVCAR-5 > 100 µM | OVCAR-8 > 100 µM | PC-3 > 100 µM | RPMI-8226 57.4 µM | SF-268 83.4 µM | SF-295 > 100 µM | SF-539 > 100 µM | SK-MEL-28 > 100 µM | SK-MEL-2 > 100 µM | SK-MEL-5 > 100 µM | SK-OV-3 > 100 µM | SN12C > 100 µM | SNB-19 > 100 µM | SNB-75 32.3 µM | SR 39.2 µM | SW-620 > 100 µM | T47D > 100 µM | TK-10 > 100 µM | U-251 > 100 µM | UACC-257 > 100 µM | UACC-62 > 100 µM | UO-31 > 100 µM

C[S+]([O-])c1ncc2c(n1)-c1ccccc1OC2 (centres undefined)
inactive: 786-0 > 100 µM | A549 > 100 µM | ACHN 92.5 µM | BT-549 > 100 µM | CAKI-1 83.8 µM | CCRF-CEM > 100 µM | COLO 205 68.1 µM | DU-145 38.6 µM | EKVX 70.1 µM | HCC 2998 38.4 µM | HCT-116 > 100 µM | HL-60 36.7 µM | HOP-62 > 100 µM | HOP-92 49.3 µM | HT-29 61.5 µM | Hs-578T 63.4 µM | IGROV-1 49.1 µM | K562 > 100 µM | KM12 > 100 µM | LOX IMVI > 100 µM | M14 > 100 µM | MCF7 38.5 µM | MDA-MB-231 > 100 µM | MDA-MB-435 > 100 µM | MDA-N > 100 µM | MOLT-4 > 100 µM | Malme-3M > 100 µM | NCI-H226 > 100 µM | NCI-H23 > 100 µM | NCI-H460 > 100 µM | NCI-H522 > 100 µM | NCI/ADR-RES > 100 µM | OVCAR-3 56.2 µM | OVCAR-4 85.9 µM | OVCAR-5 > 100 µM | OVCAR-8 > 100 µM | PC-3 > 100 µM | RPMI-8226 81.8 µM | RXF 393 > 100 µM | SF-268 > 100 µM | SF-295 > 100 µM | SF-539 > 100 µM | SK-MEL-28 > 100 µM | SK-MEL-2 > 100 µM | SK-MEL-5 78.3 µM | SK-OV-3 > 100 µM | SN12C 47 µM | SNB-19 > 100 µM | SNB-75 > 100 µM | SR > 100 µM | SW-620 > 100 µM | T47D 35.2 µM | TK-10 45.7 µM | U-251 > 100 µM | UACC-257 40.3 µM | UACC-62 92.3 µM | UO-31 22.3 µM
88.1 µM: HCT-15

Cc1cc(S(=O)(=O)NC2=NCCCN2)c(S)cc1Cl
43.6 µM: HCT-15
active: BT-549 0.721 µM
inactive: 786-0 20.8 µM | A498 > 100 µM | A549 21.6 µM | ACHN 33.8 µM | CAKI-1 16.8 µM | COLO 205 40.4 µM | DU-145 72.4 µM | EKVX 38.9 µM | HCC 2998 36.1 µM | HCT-116 31.8 µM | HL-60 22.1 µM | HOP-62 54.3 µM | HT-29 20.8 µM | Hs-578T 24.5 µM | IGROV-1 27.5 µM | K562 22.8 µM | KM12 37.8 µM | LOX IMVI 22.1 µM | M14 29.6 µM | MCF7 > 10 µM | MDA-MB-231 72.9 µM | MDA-MB-435 18.3 µM | MDA-N 43.9 µM | Malme-3M 26.4 µM | NCI-H226 22.3 µM | NCI-H460 39.3 µM | NCI-H522 22 µM | NCI/ADR-RES > 100 µM | OVCAR-3 31.6 µM | OVCAR-4 16.8 µM | OVCAR-5 33 µM | OVCAR-8 24.3 µM | PC-3 58.5 µM | RXF 393 66.2 µM | SF-268 87.1 µM | SF-539 57.8 µM | SK-MEL-28 56.4 µM | SK-MEL-2 12.4 µM | SK-MEL-5 17.9 µM | SK-OV-3 36.6 µM | SN12C 49.4 µM | SNB-19 40.6 µM | SNB-75 42.3 µM | SR 21.2 µM | SW-620 19.9 µM | T47D 25.2 µM | TK-10 26.9 µM | U-251 34.4 µM | UACC-257 37.5 µM | UACC-62 27.9 µM | UO-31 58.9 µM
